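All cell lines were grown in 96-well plates and treated with compound for 48 hours. At the GI50, growth is halved. The concentration for full growth arrest is given as TGI.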
What was measured:
Assay in all cases: inhibition of tumour cell growth, NCI panel, 48 h
BT-549 breast = system: BT-549 breast
HL-60(TB) leukemia = system: HL-60(TB) leukemia
U251 CNS = system: U251 CNS
NCI-H226 lung = system: NCI-H226 lung
DU-145 prostate = system: DU-145 prostate
SF-295 CNS = system: SF-295 CNS
SF-539 CNS = system: SF-539 CNS
SNB-19 CNS = system: SNB-19 CNS
OVCAR-3 ovarian = system: OVCAR-3 ovarian
OVCAR-5 ovarian = system: OVCAR-5 ovarian

SMILES | GI50 (BT-549 breast) [µM] | TGI (BT-549 breast) [µM] | GI50 (HL-60(TB) leukemia) [µM] | TGI (HL-60(TB) leukemia) [µM] | GI50 (U251 CNS) [µM] | TGI (U251 CNS) [µM] | GI50 (NCI-H226 lung) [µM] | TGI (NCI-H226 lung) [µM] | GI50 (DU-145 prostate) [µM] | TGI (DU-145 prostate) [µM] | GI50 (SF-295 CNS) [µM] | TGI (SF-295 CNS) [µM] | GI50 (SF-539 CNS) [µM] | TGI (SF-539 CNS) [µM] | GI50 (SNB-19 CNS) [µM] | TGI (SNB-19 CNS) [µM] | GI50 (OVCAR-3 ovarian) [µM] | TGI (OVCAR-3 ovarian) [µM] | GI50 (OVCAR-5 ovarian) [µM] | TGI (OVCAR-5 ovarian) [µM]
CCCCCCc1cc2cc(-c3nc4ccccc4[nH]3)c(=Nc3ccccc3C)oc2cc1O | 1.83 | 3.55 | 2.13 | 4.52 | 1.71 | 3.3 | 2.55 | 10.3 | 2.96 | 7.77 | 4.24 | 17.8 | 1.83 | 3.75 | 3.58 | 22 | 1.77 | 3.28 | 3.64 | 29
Cc1ccc2c(c1)c1nc3cc(C)c(C)cc3nc1n2CCN(C)C | 2.46 | 9.05 | 2.95 | 9.65 | 2.3 | 8.85 | 1.86 | 4.69 | 2.9 | 10.6 | 2.37 | 6.62 | 2.15 | 6.13 | 2.5 | 9.88 | 2.37 | 6.59 | 2.4 | 7.65
CCOC(=O)c1sc2ncn(Cc3cccc(Br)c3)c(=O)c2c1C | 28.7 | > 100 | 28.7 | > 100 | 31.7 | > 100 | 19.8 | 85 | 88.8 | > 100 | 64.9 | > 100 | 84.5 | > 100 | > 100 | > 100 | 39.7 | > 100 | > 100 | > 100
O=[N+]([O-])c1ccccc1N=Nc1c(O)[nH]c2ccc(Br)cc12 | – | > 47.3 | – | > 68.8 | – | > 53.3 | – | > 48.9 | – | 31.5 | – | 34.3 | – | > 100 | – | 45.2 | – | 35.4 | – | 33.3
CCCCCc1nc2c(c3c1CCCC3)CCCC2 | 10.7 | 24.4 | 5.8 | 29.4 | 11.9 | 29.1 | 9.57 | 25.6 | 23.2 | > 100 | 4.58 | 20.9 | 17.4 | 36.2 | 18.3 | > 100 | 4.7 | 17.8 | 9.08 | 27.4
Clc1ccc(/C=C/c2cc(N3CCOCC3)c3cc(Cl)c(Cl)cc3n2)cc1 | 0.706 | > 40.2 | 0.339 | > 100 | > 100 | > 100 | > 100 | > 100 | > 100 | > 100 | > 100 | > 100 | > 100 | > 100 | > 100 | > 100 | 3.81 | > 100 | > 100 | > 100
CC(C)c1c(C(=O)Nc2ccccc2)c(-c2ccccc2)c(-c2ccc(F)cc2)n1CC[C@@H]1CC=CC(=O)O1 | 1.6 | 3.46 | 1.24 | 6.42 | 1.7 | 3.17 | 1.71 | 3.26 | 1.84 | 3.27 | 3.28 | 13.6 | 1.61 | 3.14 | 1.7 | 3.13 | 1.8 | 3.31 | 2.05 | 5.02
C=C(C)C1Cc2c(cc(OC)c3c(=O)c4cccc(O)c4oc23)O1 (stereo unspecified) | – | 34.8 | – | > 100 | – | 34.8 | – | 44 | – | > 100 | – | 41.6 | – | 32.3 | – | 98.4 | – | – | – | > 100
Oc1ccc(CN2CCC(N3CCOCC3)CC2)c2cccnc12 | 31.9 | > 100 | 22.7 | 51 | 24.4 | > 100 | 41.4 | > 100 | 31.3 | > 100 | 39.8 | > 100 | 24.2 | > 100 | 43.9 | > 100 | 31.5 | > 100 | 86.9 | > 100
O=c1cc(-c2ccccc2)oc2cc(O)c(O)c(O)c12 | 13.6 | 87.5 | 55.1 | > 100 | 11.1 | > 100 | 19.3 | 58 | 25.1 | > 100 | 11.7 | 46.4 | 8.4 | 36.8 | 30 | > 100 | 16 | 41.7 | 30 | 88.5
N/C(=C\C(=O)n1nc(-c2ccccc2)cc1N)c1ccccc1 | 2.56 | 27.4 | 1.88 | 5.99 | 4.04 | 19.2 | 11.2 | 47.5 | 5.39 | 27.7 | 3.48 | 31.6 | – | – | 14.9 | 81.2 | 2.28 | 6.46 | 19.2 | 61.6
Cn1ccnc1C(=O)/C=C/c1ccc(C(=O)Nc2ccc(S(F)(F)(F)(F)F)cc2)cc1 | 2.62 | > 14.3 | 0.945 | 5.49 | 0.506 | > 14.3 | 6.57 | > 14.3 | 2.41 | > 14.3 | 1.62 | > 14.3 | 2.4 | 6.45 | 2.34 | > 14.3 | 1.05 | 7.26 | 3.3 | > 14.3
Cn1cc(C2=C(c3cccc(N)c3)C(=O)NC2=O)c2ccccc21 | > 19.3 | > 25 | 11.4 | > 25 | 10.4 | > 25 | 10 | > 25 | 19 | > 25 | 3.93 | > 25 | 4.07 | > 25 | > 25 | > 25 | 5.67 | > 25 | > 25 | > 25
CN(CCCCCl)P(=O)(OCc1ccc([N+](=O)[O-])o1)OCC1OC(n2ccc(N)nc2=O)C(F)(F)C1O (stereo unspecified) | 1.57 | 88.2 | 1.56 | 17.7 | 0.77 | > 86.5 | 15.7 | > 100 | 0.188 | > 28.4 | 0.878 | > 54.6 | 0.0417 | 0.427 | 0.257 | – | 3.15 | > 45.5 | 1.92 | > 100
Cc1cc(NCCCNc2ccnc3cc(Cl)ccc23)nc(N2CCN(C)CC2)n1 | 13.1 | 53.3 | 2.99 | 9.06 | 3.91 | 17.2 | 3.39 | 22 | 5.5 | 17.9 | 3.51 | 12.3 | 1.84 | 3.6 | 12.5 | 49.5 | 5.79 | 25.7 | 11.6 | 43.2
O=C1C2C(C(=O)[N]1[Hg][c]1cccs1)C1(Cl)C(Cl)=C(Cl)C2(Cl)C1(Cl)Cl (stereo unspecified) | 0.984 | 2.24 | 1.29 | 4.63 | 0.466 | 1.68 | 6.88 | 37.8 | 1.8 | 4.72 | 3.11 | 8.53 | 2.08 | 4.76 | 1.72 | 3.4 | 0.283 | 0.904 | 1.85 | 3.61
CC/C(=C(/c1ccc(OCCN(C)C)cc1)c1ccc(OC(=O)CCC(=O)c2c(C)[nH]c(/C=C3\N=C(c4ccc[nH]4)C=C3OC)c2C)cc1)c1ccccc1 | 3.5 | 20.4 | 3.13 | 8.8 | 1.46 | 6.23 | 3.54 | 22.5 | 3.27 | 16.8 | 2.61 | 9.06 | 2.59 | 9.26 | 5.49 | 21.8 | 2.08 | 10.3 | 5.75 | 21.6
COc1cc(-c2nc3sccn3c2-c2ccnc(NCCNS(=O)(=O)c3ccc(Cl)cc3)n2)ccc1F | 2.61 | > 100 | 3.74 | > 100 | 7.67 | > 100 | 2.37 | 10.5 | 3.62 | > 100 | 4.07 | > 100 | 6.98 | > 100 | 74 | > 100 | 4.94 | > 100 | 55 | > 100
COC(=O)C1=C(C)NC(C)=C(C(=O)OC)C1/C=C(\Cl)c1ccc(Cl)c(Cl)c1 | 16.6 | 32.2 | 11.9 | 38.4 | 14.1 | 27.1 | 15.8 | 38.2 | 16.5 | 32 | 6.26 | 21.6 | 17.1 | 33 | 18.8 | 41.6 | 12.8 | 26.3 | 16.8 | 30.4
O=c1c2c3c(sc2n2c(-c4cc(-c5ccccc5)no4)nnc2n1Cc1ccccc1)CCCC3 | 13.7 | 63.2 | 4.65 | 29.9 | 17.3 | > 100 | 20 | 58.3 | 19.6 | > 93.3 | 6.53 | 31.7 | 19.2 | 72.2 | 31.8 | > 100 | 8.61 | 30.5 | 91.2 | > 100
CN(Cc1ccc(Cl)cc1)c1ccc(CO)c(Cl)c1 | 5.31 | 19.9 | 5.28 | 42.4 | 3.01 | 15.9 | 0.115 | 0.285 | 10.8 | 25.5 | 2.48 | 16 | 14 | 28.8 | 16.8 | 51.6 | 3.74 | 13.2 | 0.644 | 4.67
CCOC(=O)/C(=N\OC)C(O)C(F)(F)F (stereo unspecified) | – | > 100 | – | > 100 | – | > 100 | – | > 100 | – | > 100 | – | > 100 | – | > 100 | – | > 100 | – | – | – | > 100
N=C(N)c1ccc(OCCOCCOc2ccc(C(=N)N)cc2)cc1 | 53.5 | > 100 | > 100 | > 100 | 77.6 | > 100 | > 100 | > 100 | 96.1 | > 100 | 44.7 | > 100 | 35.3 | > 100 | 80.6 | > 100 | > 100 | > 100 | > 100 | > 100
COc1ccc2c(c1)=C(C=C1C=CN(O)C=C1)C(=O)N=2 | 22.6 | 88.1 | 22.4 | 49.9 | 27.3 | > 100 | 25.7 | 97.5 | 32.5 | > 100 | 34.3 | > 93.8 | 28.8 | > 65.8 | 10.6 | 64.8 | 26.2 | > 78.1 | 12.7 | 50.8
CC(C)Nc1ccc(Nc2ccccc2)cc1 | 11.3 | 33.9 | 17.7 | 51.3 | 12.8 | 32 | 19.9 | 69.3 | 26.2 | > 100 | – | – | 5.34 | 38.6 | 25.5 | > 100 | 9.49 | 21.8 | 24.6 | 57.1
N#C/C(=N\Nc1ccc(Cl)cc1)C(=O)Nc1cc(-c2ccccc2)nn1-c1ccccc1 | 2.52 | 7.18 | 3.05 | 9.38 | 3.08 | > 100 | – | – | 3.9 | > 100 | 2.86 | > 100 | 3.29 | > 100 | 3.17 | > 100 | 2.71 | > 100 | 3 | > 100
